In patent publication US20240246948A1, “BENZAMIDE DERIVATIVE, METHOD FOR PREPARING SAME, AND PHARMACEUTICAL COMPOSITION FOR PREVENTION OR TREATMENT OF CANCER CONTAINING SAME AS ACTIVE INGREDIENT” (HK INNO.N CORPORATION, priority 2021, published 2024):

Columns and labels:
[1] = molecular target: Ba/F3 EGFR L858R/T790M/C797S (LTC) (Homo sapiens, UniProt P00533, T790M/C797S/L858R, cells depend on it); experiment: Cell growth inhibitory ability in Ba/F3 cells overexpressing EGFR L858R/T790M/C797S (MTS, CellTiter 96 AQueous); type: cell-based; conditions: 72 hours, MTS absorbance at 490 nm, read-out: Ba/F3 EGFR triple mutant L858R/T790M/C797S, IC50
Chain of Ba/F3 EGFR L858R/T790M/C797S (LTC) (P00533 whole entry T790M/C797S/L858R): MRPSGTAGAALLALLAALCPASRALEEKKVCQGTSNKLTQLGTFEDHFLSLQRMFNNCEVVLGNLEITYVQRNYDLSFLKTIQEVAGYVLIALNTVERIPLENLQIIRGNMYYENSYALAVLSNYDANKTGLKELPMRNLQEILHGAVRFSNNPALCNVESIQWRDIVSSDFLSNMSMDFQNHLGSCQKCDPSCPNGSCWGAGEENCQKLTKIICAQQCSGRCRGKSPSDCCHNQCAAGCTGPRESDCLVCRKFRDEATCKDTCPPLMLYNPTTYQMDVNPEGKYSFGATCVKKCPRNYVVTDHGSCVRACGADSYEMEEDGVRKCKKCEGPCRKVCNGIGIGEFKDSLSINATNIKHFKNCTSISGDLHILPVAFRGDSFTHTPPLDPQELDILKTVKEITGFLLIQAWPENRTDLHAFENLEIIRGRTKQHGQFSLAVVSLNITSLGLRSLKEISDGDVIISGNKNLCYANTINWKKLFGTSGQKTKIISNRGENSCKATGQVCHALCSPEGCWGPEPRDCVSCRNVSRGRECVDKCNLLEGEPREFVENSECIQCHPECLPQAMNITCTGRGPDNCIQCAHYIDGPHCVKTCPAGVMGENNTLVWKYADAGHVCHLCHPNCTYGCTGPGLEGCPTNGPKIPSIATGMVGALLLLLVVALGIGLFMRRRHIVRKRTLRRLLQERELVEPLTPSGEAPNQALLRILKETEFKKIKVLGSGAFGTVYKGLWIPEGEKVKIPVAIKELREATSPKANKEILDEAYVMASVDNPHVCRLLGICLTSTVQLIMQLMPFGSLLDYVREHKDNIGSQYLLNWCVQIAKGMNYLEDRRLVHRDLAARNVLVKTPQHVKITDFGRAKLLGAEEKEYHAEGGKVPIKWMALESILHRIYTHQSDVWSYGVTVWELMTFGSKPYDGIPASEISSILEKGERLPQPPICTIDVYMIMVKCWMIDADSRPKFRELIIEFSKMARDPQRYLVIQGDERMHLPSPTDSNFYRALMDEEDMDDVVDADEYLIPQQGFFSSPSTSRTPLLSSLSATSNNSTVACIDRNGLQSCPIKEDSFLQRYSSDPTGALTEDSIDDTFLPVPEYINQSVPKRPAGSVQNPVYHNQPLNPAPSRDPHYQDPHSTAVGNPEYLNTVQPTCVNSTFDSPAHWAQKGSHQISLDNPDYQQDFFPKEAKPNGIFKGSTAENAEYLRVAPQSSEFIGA
Procedure: (§1) In order to confirm that the compound represented by formula 1 provided in one aspect of the present invention acts as an allosteric inhibitor against WT and mutant of EGFR, the cell growth inhibitory effect was evaluated in BaF3 cells overexpressing WT and mutant of EGFR.
(§2) More specifically, the cell growth inhibitory ability of the compound of the present invention to the Ba/F3 cell line overexpressing WT and mutant of EGFR was evaluated using CellTiter 96 AQueous Non-Radioactive Cell Proliferation Assay system of Promega, as follows. AQueous Non-Radioactive Cell Proliferation Assay is a method of confirming cell growth inhibitory ability by measuring the degree of color development by reducing MTS (3-(4,5-Dimethylthiazol-2-yl)-5-(3-carboxymethoxyphenyl)-2-(4-sulfophenyl)-2H-tetrazolium) to Formazan by a reductase secreted by mitochondria present in living cells in a cell culture state. The Ba/F3 EGFR WT and Ba/F3 EGFR del19/T790M/C797S (DTC), Ba/F3 EGFR L858R (L), Ba/F3 EGFR L858R/T790M (LT), and Ba/F3 EGFR L858R/T790M/C797S (LTC) mutation cell lines used in the present invention were purchased from the laboratory of Professor Byung-cheol Cho, Yonsei University. All cell lines were cultured in RPMI supplemented with 10% FBS, 1% penicillin-streptomycin and 1 μg/ml of puromycine in a 5% CO2 incubator at 37° C.
(§3) The cell survival inhibitory effect of the compound according to each EGFR mutation was analyzed by the following analysis method.
(§4) BaF3 cells were distributed in a 96-well cell culture plate at the density of 2000˜10000 cells/100 μL/well, and cultured for 24 hours. Thereafter, the concentration of the compound represented by formula 1 provided in one aspect of the present invention was prepared to double the final concentrations of 0.1 nM, 1 nM, 10 nM, 100 nM, 1000 nM and 10000 nM, and the compound was treated to the plate (100 μL/well). The plate was reacted in an incubator at 37° C. for 72 hours. Then, MTS was treated to the plate (20 μL/well) and the plate was incubated at 37° C. for 2 to 4 hours. Finally, after measuring the absorbance at 490 nm using a microplate reader, the relative value compared to 0 nM (% Control) was obtained to confirm the cell growth inhibitory ability of the compound. The measured values were analyzed using Prism program (version 8.0, Graphpad Software, Inc.), and the IC50 value (Inhibition concentration 50), an indicator of the cell growth inhibitory ability of the compound, was calculated.

[2] = molecular target: Ba/F3 EGFR L858R/T790M (LT) (Homo sapiens, UniProt P00533, T790M/L858R, cells depend on it); experiment: Cell growth inhibitory ability in Ba/F3 cells overexpressing EGFR L858R/T790M (MTS, CellTiter 96 AQueous); type: cell-based; conditions: 72 hours, MTS absorbance at 490 nm, read-out: Ba/F3 EGFR double mutant L858R/T790M, IC50
Chain of Ba/F3 EGFR L858R/T790M (LT) (P00533 whole entry T790M/L858R): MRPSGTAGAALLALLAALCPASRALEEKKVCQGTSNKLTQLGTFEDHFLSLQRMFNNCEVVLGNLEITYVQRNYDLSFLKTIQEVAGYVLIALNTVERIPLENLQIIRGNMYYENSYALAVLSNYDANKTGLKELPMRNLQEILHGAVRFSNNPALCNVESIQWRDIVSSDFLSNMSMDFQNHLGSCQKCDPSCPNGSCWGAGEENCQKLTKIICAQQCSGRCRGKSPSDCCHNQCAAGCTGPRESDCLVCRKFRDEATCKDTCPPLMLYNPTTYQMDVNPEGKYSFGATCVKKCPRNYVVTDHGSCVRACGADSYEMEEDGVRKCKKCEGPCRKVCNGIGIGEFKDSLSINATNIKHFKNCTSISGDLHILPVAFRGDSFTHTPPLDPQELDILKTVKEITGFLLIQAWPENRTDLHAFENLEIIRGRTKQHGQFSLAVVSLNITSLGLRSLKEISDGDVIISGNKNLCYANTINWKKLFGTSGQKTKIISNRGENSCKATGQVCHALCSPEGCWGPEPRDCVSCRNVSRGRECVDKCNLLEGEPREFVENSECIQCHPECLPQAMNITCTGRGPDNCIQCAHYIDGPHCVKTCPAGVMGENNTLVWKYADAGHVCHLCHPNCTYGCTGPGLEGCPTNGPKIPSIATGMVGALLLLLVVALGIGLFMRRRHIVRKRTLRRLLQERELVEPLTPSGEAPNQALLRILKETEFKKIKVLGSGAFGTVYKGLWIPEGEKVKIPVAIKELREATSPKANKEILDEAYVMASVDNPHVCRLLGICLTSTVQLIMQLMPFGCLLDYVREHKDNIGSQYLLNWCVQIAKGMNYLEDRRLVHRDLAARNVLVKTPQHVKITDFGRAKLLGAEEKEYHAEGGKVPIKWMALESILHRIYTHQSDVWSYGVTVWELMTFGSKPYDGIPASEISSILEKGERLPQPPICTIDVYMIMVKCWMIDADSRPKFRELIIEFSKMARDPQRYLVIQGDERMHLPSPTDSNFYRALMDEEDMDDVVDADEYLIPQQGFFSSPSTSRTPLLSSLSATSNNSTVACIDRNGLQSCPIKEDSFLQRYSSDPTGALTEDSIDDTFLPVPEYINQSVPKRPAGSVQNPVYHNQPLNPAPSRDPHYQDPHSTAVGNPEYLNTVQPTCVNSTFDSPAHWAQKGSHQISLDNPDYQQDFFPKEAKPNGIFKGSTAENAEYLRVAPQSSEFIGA
Procedure: as §1, §2, §3, §4

Row | Compound | GI50 [1] [nM] | GI50 [2] [nM]
1 | CC(C)(C)c1cc(C(=O)N[C@@H](c2cc3ccccc3[nH]2)c2cc(F)ccc2O)cc(-c2ccc(N3CCC(N)CC3)cc2)c1 [Example 4, (R)-4′-(4-aminopiperidine-1-yl)-5-(tert-butyl)-N-((5-fluoro-2-hydroxyphenyl)(1H-indole-2-yl)methyl)-[1,1′-biphenyl]-3-carboxamide] | > 200 | > 200
2 | NC1CCN(c2ccc(-c3cc(C(=O)N[C@@H](c4cc5ccccc5[nH]4)c4cc(F)ccc4O)cc(C(F)(F)F)c3)cc2)CC1 [Example 6, 4′-(4-aminopiperidine-1-yl)-N-((5-fluoro-2-hydroxyphenyl)(1H-indole-2-yl)methyl)-5-(trifluoromethyl)-[1,1′-biphenyl]-3-carboxamide] | > 200 | > 200
3 | CSc1cc(C(=O)N[C@@H](c2cc3ccccc3[nH]2)c2cc(F)ccc2O)cc(-c2ccc(N3CCC(N)CC3)cc2)c1 [Example 8, 4′-(4-aminopiperidine-1-yl)-N-((5-fluoro-2-hydroxyphenyl)(1H-indole-2-yl)methyl)-5-(methylthio)-[1,1′-biphenyl]-3-carboxamide] | > 200 | > 200
4 | Cc1cc(C(=O)N[C@@H](c2cc3ccccc3[nH]2)c2cc(F)ccc2O)cc(-c2ncc(N3CCC(N4CCCCC4)CC3)cn2)c1 [Example 50, (R)-3-(5-([1,4′-bipiperidine]-1′-yl)pyrimidine-2-yl)-N-((5-fluoro-2-hydroxyphenyl)(1H-indole-2-yl)methyl)-5-methylbenzamide] | < 30 | 
5 | Cc1cc(C(=O)N[C@@H](c2cc3ccccc3[nH]2)c2cc(F)ccc2O)cc(-c2ncc(N3CCC(CN4CCCC4)CC3)cn2)c1 [Example 52, (R)—N-((5-fluoro-2-hydroxyphenyl)(1H-indole-2-yl)methyl)-3-methyl-5-(5-(4-(pyrrolidine-1-ylmethyl)piperidine-1-yl)pyrimidine-2-yl)benzamide] | > 200 | 
6 | CNC1CCN(c2cnc(-c3cc(C)cc(C(=O)N[C@@H](c4cc5ccccc5[nH]4)c4cc(F)ccc4O)c3)nc2)CC1 [Example 54, (R)—N-((5-fluoro-2-hydroxyphenyl)(1H-indole-2-yl)methyl)-3-methyl-5-(5-(4-(methylamino)piperidine-1-yl)pyrimidine-2-yl)benzamide] | < 30 | 
7 | Cc1cc(C(=O)N[C@@H](c2cc3ccccc3[nH]2)c2cc(F)ccc2O)cc(-c2ncc(N3CCC(C(=O)Nc4ccccc4)CC3)cn2)c1 [Example 55, (R)-1-(2-(3-(((5-fluoro-2-hydroxyphenyl)(1H-indole-2-yl)methyl)carbamoyl)-5-methylphenyl)pyrimidine-5-yl)-N-phenylpiperidine-4-carboxamide] | > 200 | 
8 | COCCOc1ccc(N2CCN(c3cnc(-c4cc(C)cc(C(=O)N[C@@H](c5cc6ccccc6[nH]5)c5cc(F)ccc5O)c4)nc3)CC2)cc1 [Example 56, (R)—N-((5-fluoro-2-hydroxyphenyl)(1H-indole-2-yl)methyl)-3-(5-(4-(4-(2-methoxyethoxy)phenyl)piperazine-1-yl)pyrimidine-2-yl)-5-methylbenzamide] | > 200 | 

Second part, the molecule after the results:

Row | GI50 [1] [nM] | GI50 [2] [nM] | Compound
9 | < 30 | < 30 | Cc1cc(C(=O)N[C@@H](c2cc3ccccc3[nH]2)c2cc(F)ccc2O)cc(-c2ccc(N3CCC(N)CC3)cc2)c1 [Example 1, (R)-4′-(4-aminopiperidine-1-yl)-N-((5-fluoro-2-hydroxyphenyl)(1H-indole-2-yl)methyl)-5-methyl-[1,1′-biphenyl]-3-carboxamide]
10 | > 200 | > 200 | CC(C)c1cc(C(=O)N[C@@H](c2cc3ccccc3[nH]2)c2cc(F)ccc2O)cc(-c2ccc(N3CCC(N)CC3)cc2)c1 [Example 2, (R)-4′-(4-aminopiperidine-1-yl)-N-((5-fluoro-2-hydroxyphenyl)(1H-indole-2-yl)methyl)-5-isopropyl-[1,1′-biphenyl]-3-carboxamide]
11 | > 200 | > 200 | COc1cc(C(=O)N[C@@H](c2cc3ccccc3[nH]2)c2cc(F)ccc2O)cc(-c2ccc(N3CCC(N)CC3)cc2)c1 [Example 3, (R)-4′-(4-aminopiperidine-1-yl)-N-((5-fluoro-2-hydroxyphenyl)(1H-indole-2-yl)methyl)-5-methoxy-[1,1′-biphenyl]-3-carboxamide]
12 | > 200 | < 30 | NC1CCN(c2ccc(-c3cc(F)cc(C(=O)N[C@@H](c4cc5ccccc5[nH]4)c4cc(F)ccc4O)c3)cc2)CC1 [Example 5, (R)-4′-(4-aminopiperidine-1-yl)-5-fluoro-N-((5-fluoro-2-hydroxyphenyl)(1H-indole-2-yl)methyl)-[1,1′-biphenyl]-3-carboxamide]
13 | > 200 | > 200 | NC1CCN(c2ccc(-c3cc(C(=O)N[C@@H](c4cc5ccccc5[nH]4)c4cc(F)ccc4O)cc([N+](=O)[O-])c3)cc2)CC1 [Example 7, 4′-(4-aminopiperidine-1-yl)-N-((5-fluoro-2-hydroxyphenyl)(1H-indole-2-yl)methyl)-5-nitro-[1,1′-biphenyl]-3-carboxamide]
14 | < 30 |  | Cc1cc(C(=O)N[C@@H](c2cc3ccccc3[nH]2)c2cc(F)ccc2O)cc(-c2ncc(N3C4CCC3CN(C)C4)cn2)c1 [Example 46, N—((R)-(5-fluoro-2-hydroxyphenyl)(1H-indole-2-yl)methyl)-3-methyl-5-(5-(3-methyl-3,8-diazabicyclo[3.2.1]octane-8-yl)pyrimidine-2-yl)benzamide]
15 | > 200 |  | Cc1cc(C(=O)N[C@@H](c2cc3ccccc3[nH]2)c2cc(F)ccc2O)cc(-c2ncc(N3CCC(n4cccc4)CC3)cn2)c1 [Example 47, (R)-3-(5-(4-(1H-pyrrole-1-yl)piperidine-1-yl)pyrimidine-2-yl)-N-((5-fluoro-2-hydroxyphenyl)(1H-indole-2-yl)methyl)-5-methylbenzamide]
16 | 30 to 200 |  | Cc1cc(C(=O)N[C@@H](c2cc3ccccc3[nH]2)c2cc(F)ccc2O)cc(-c2ncc(N3CCC(n4cncn4)CC3)cn2)c1 [Example 48, (R)-3-(5-(4-(1H-1,2,4-triazole-1-yl)piperidine-1-yl)pyrimidine-2-yl)-N-((5-fluoro-2-hydroxyphenyl)(1H-indole-2-yl)methyl)-5-methylbenzamide]
17 | < 30 |  | Cc1cc(C(=O)N[C@@H](c2cc3ccccc3[nH]2)c2cc(F)ccc2O)cc(-c2ncc(N3CCC(O)CC3)cn2)c1 [Example 49, (R)—N-((5-fluoro-2-hydroxyphenyl)(1H-indole-2-yl)methyl)-3-(5-(4-hydroxypiperidine-1-yl)pyrimidine-2-yl)-5-methylbenzamide]
18 | > 200 |  | Cc1cc(C(=O)N[C@@H](c2cc3ccccc3[nH]2)c2cc(F)ccc2O)cc(-c2ncc(N3CCC(CN4CCOCC4)CC3)cn2)c1 [Example 51, (R)—N-((5-fluoro-2-hydroxyphenyl)(1H-indole-2-yl)methyl)-3-methyl-5-(5-(4-(morpholinomethyl)piperidine-1-yl)pyrimidine-2-yl)benzamide]
19 | < 30 |  | Cc1cc(C(=O)N[C@@H](c2cc3ccccc3[nH]2)c2cc(F)ccc2O)cc(-c2ncc(N3CC[C@@H](N(C)C)C3)cn2)c1 [Example 53, 3-[5-[(3R)-3-(dimethylamino)pyrrolidine-1-yl]pyrimidine-2-yl]-N—[(R)-(5-fluoro-2-hydroxy-phenyl)-(1H-indole-2-yl)methyl]-5-methyl-benzamide]
